Measured values taken from patent publication EP1541559A1, “5-SUBSTITUTED ISOQUINOLINE DERIVATIVE” (Asahi Kasei Pharma Corporation, priority 2002, dated 2004).
Like-named read-outs stand apart in the source and are kept apart here.

Key:
[1] = test system: Neutrophils; experiment: Neutrophil migration inhibitory action, Boyden Chamber, FMLP (Test Example 5); assay type: cell-based, human; conditions: Homo sapiens, Neutrophil, 0.5 h, FMLP (1 µM), migration at 37°C for 30 minutes; read-out: Neutrophil migration inhibition IC50
Protocol: Neutrophils were isolated from 50 to 100 ml of peripheral blood collected from healthy donors by the method described in Test Example 1 to obtain a cell suspension (8 x 10^6/ml). Subsequently, solutions of a test compound at various concentrations were introduced into wells of a 96-well plate in a volume of 125 µl per well, the cell suspension of an equivalent volume was added to it and the plate was preincubated at room temperature for 5 minutes. During the preincubation, FMLP (1 µM, Sigma) solution was added to the lower chamber to set Boyden Chamber, the preincubated cell suspension was added to the upper chamber in a volume of 200 µl per well, and the cells were allowed to migrate at 37°C under 5% carbon dioxide for 30 minutes. The filter after the migration was collected, and the non-migrated cells adhered to the surface that faced the upper chamber were carefully wiped off. Then, the migrated cells on the back surface were stained with DifQuick dye solution (International Reagents), washed with water and dried, and then absorbance was measured at 595 nm. The inhibition ratio against migration (%) of a test compound was calculated by using the following equation: Migration inhibition ratio (%) = (1 -Absorbance of the group with addition of test compound /Absorbance of the group without addition of test compound) x 100 [formula]

[2] = test system: myosin regulatory light chain; experiment: Action on amount of phosphorylated myosin regulatory light chain in the cells (Test Example 1); assay type: cell-based, human; conditions: neutrophils of healthy volunteers, reaction with test compound at 25°C for 5 minutes, read-out: Inhibition of myosin regulatory light chain phosphorylation (IC50: µM)
Protocol: The neutrophils were washed with PBS(-) and resuspended in Hanks' Balanced Salt Solution (HBSS+, Gibco) to prepare a cell suspension (8 x 10^6/ml). The cell suspension was diluted to 5 x 10^6/ml, introduced into Eppendorf tubes in a volume of 0.4 ml each, then 0.1 ml each of solutions of a test compound at various concentrations were added to the suspension and allowed to react at 25°C for 5 minutes. After the reaction, 0.1 ml of trichloroacetic acid solution was added to each reaction, the reaction mixture was gently shaken and centrifuged at 12,000 rpm (4°C, 5 minutes), and the supernatant was removed. Subsequently, 3 μl of 1 M Tris solution was added to the residue, the mixture was further mixed with 50 μl of extraction buffer (8 M urea, 0.02% 2-mercaptoethanol, 0.002% bromophenol blue) and left stand at room temperature for 1 hour. Then, the reaction mixture was loaded on a spin column (0.45 μm, Millipore) to remove the insoluble solids and a sample buffer for SDS polyacrylamide gel electrophoresis (25 mM, Tris-HCl pH 6.8, 2.5% 2-mercaptoethanol, 2% sodium dodecylsulfate, 5% sucrose, 0.002% bromophenol blue as final concentrations) was added, and 10 μl of each sample was subjected to electrophoresis. […] J. Physiol., 274, […]-[…] (1998)), which specifically recognize the phosphorylated myosin regulatory light chain, and donkey anti-mouse IgG (Chemicon) conjugated with horseradish peroxidase (HRP-labeled). The band of the phosphorylated myosin regulatory light chain was detected on a film by using ECL Plus Kit (Amersham Pharmacia Biotech). This band was subjected to quantification using a densitometer. By using this value, the inhibitory ratio (%) for phosphorylation of the myosin regulatory light chain was calculated by using the following equation.

[3] = test system: thoracic aorta; experiment: Vasoconstriction inhibitory action on aorta rings constricted with phenylephrine (Test Example 2); design: species or system Rats (Wistar, 11-week old); conditions: aorta constricted with phenylephrine (1 µM); for inhibition at 1 µM: Rattus norvegicus, test compound 1 µM, read-out: Vasoconstriction inhibitory action (relaxation ratio) (%); for vasoconstriction inhibitory action: result in words
Description: Rats (Wistar, 11-week old) were bleeded to death and laparotomized to take out the thoracic aorta.

[4] = test system: BALB/c female mice; experiment: Respiratory tract inflammation suppressing action, OVA-induced (Test Example 6); assay type: in vivo; conditions: for Total WBC count x 10E5/ml/mouse: orally 30 mg/kg once a day for 5 days, inhalation of 2% OVA, alveoli washed after 24 hours
Protocol: According to the method described in Henderson, W.R., et al., Am. J. Respir. Cric. Care Med., 165(1), 108-116 (2002), suppressing action on bronchial inflammation was confirmed. BALB/c female mice (7-week old) were used for the test, each group consisting of 7 mice, and the control group consisting of 11 or 12 mice. The mice were intraperitoneally administered with ovalbumin (OVA, 100 ng, Sigma) and 1 mg of aluminum hydroxide for initial immunization, and after 2 weeks, they are subcutaneously administered with 10 ng of OVA as additional immunization. After further 1 week, a test compound was dissolved in water containing 0.5% carboxymethylcellulose and orally administered (30 mg/kg) to the test animals once a day for 5 days. The control group was similarly given only with water containing 0.5% carboxymethylcellulose. After 1 hour, the mice were orally inhaled with 2% OVA for 10 minutes to induce a respiratory tract inflammation. Further, the control group, in which the mice were not given with the test compound, was divided into a positive control group (n = 7), in which the mice were inhaled with 2% OVA to induce the reaction, and a negative control group (n = 4 or 5), in which the mice were similarly inhaled with physiological saline. After 24 hours, alveoli in the lungs of the test animals were washed with physiological saline, and the total infiltrated white blood cells (WBC) were counted.

[5] = test system: human neutrophil fraction; experiment: Action on increase of intracellular calcium concentration, Fura2-AM, fMLP (Test Example 7); assay type: cell-based; conditions: test compound 1 µM added 3 minutes before fMLP (1 µM), R = F340/F380, without test compound = 100%, read-out: Maximum R value (%)
Protocol: According to the method described in Test Example 1, a neutrophil containing fraction was prepared. Fura2-AM (Sigma) at a final concentration of 3 µM was added to the human neutrophil fraction and the mixture was incubated at 37°C for 1 hour. After centrifugation (250 g for 5 minutes), the supernatant was discarded, and the neutrophils were resuspended in Hanks' Balanced Salt Solution (HBSS, Gibco) to prepare a cell suspension (8 x 10^6/ml) for measurement of intracellular calcium concentration. The cell suspension for measurement of intracellular calcium concentration was left stand at room temperature for 30 minutes. Then, 490 µl of the cell suspension for measurement of intracellular calcium concentration was placed in a cuvette, 10 µl of calcium chloride solution at a final concentration of […] was added to it and the cuvette was set in an intracellular calcium concentration analyzer (CAF110, Nippon Bunko). fMLP (Sigma) solution at a final concentration of 1 µM was added to the cell suspension, and F340 and F380, which are fluorescence intensity at 340 nm and 380 nm, respectively, were measured to obtain an R value (F340/F380) as an index of the intracellular calcium concentration. A test compound (1 µM) was added 3 minutes before the addition of fMLP, and the action on the intracellular calcium concentration was observed. The ratios of the maximum R value obtained with addition of each test compound, based on the maximum R value obtained without addition of test compound and taken as 100%, are shown in Table 10 mentioned below.

[6] = test system: ovalbumin-immunized guinea pigs; experiment: Respiratory tract constriction suppression action, ovalbumin-induced (Test Example 3); assay type: in vivo, Hartley guinea pigs; conditions: result in words; test medicament given into hind leg vein after induction with 0.3 mg/kg ovalbumin, measured for 15 minutes
Protocol: Four-week old Hartley guinea pigs (male) were immunized by intraperitoneal administration of ovalbumin (Sigma, Grade V) in amounts of 1 mg for each animal on the day on which the experiment was started, 3 mg for each animal after 2 days, and 10 mg for each animal after 4 days. Twelve to fourteen days after the final immunization, the ovalbumin-immunized guinea pigs were anesthetized by intraperitoneal administration of about 40 mg/kg of pentobarbital (Somnopentyl), and the tracheas were taken out. Subsequently, a cannula (SP-110, Natsume) was inserted into each trachea, and one end of the cannula was connected to an artificial respirator (Model-b83, Harvard). The aeration conditions were set at 6 ml per kilogram and 60 times per 1 minute. Further, a cannula for medicament administration (JMS wing needle 23G 3/4) was inserted into a hind leg vein. Myoblock (Organon Technica) was administered in an amount of 0.5 mg/kg from the cannula inserted into the hind leg vein to stop the spontaneous breathing, and after 2 or 3 minutes, 0.3 mg/kg of ovalbumin was administered to induce constriction of respiratory tract. The increase of airway resistance value 2 minutes after the induction (measurement apparatuses: pressure transducer TR-603T, respiratory amplifier AR-601G, and recorder RTA-3100, Nihon Kohden Corp.) was confirmed to be above 80 cm H2O or higher, and then, a solution of a test medicament was administered from the cannula inserted into the hind leg vein, and the airway resistance value was continuously measured for 15 minutes after the administration to determine the effect.

[7] = Homo sapiens, Neutrophil, 5 min

SMILES	IC50 [1]	IC50 [2, 7]	inhibition at 1 µM [3]	Total WBC count x 10E5/ml/mouse [4]	activity at 1 µM [5]	vasoconstriction inhibitory action [3]	constriction of respiratory tract (airway resistance value) [6]	IC50 ([2]; hydrochloride)	infiltrated white blood cell number ([4]; result in words)
Cl.NCCCN(CCCc1ccccc1)S(=O)(=O)c1cccc2cnccc12 [Example 1, N-[(5-Isoquinolyl)sulfonyl]-N-(3-phenylpropyl)-1,3-propylenediamine hydrochloride]	≤ 1000 nM	0.8 µM	73.8%	300 x 10E5/ml/mouse	98%				
Cl.NCCCN(CCc1cccs1)S(=O)(=O)c1cccc2cnccc12 [Example 2, N-[(5-Isoquinolyl)sulfonyl]-N-[2-(2-thienyl)ethyl]-1,3-propylenediamine hydrochloride]	1000 to 10000 nM	0.8 µM		200 x 10E5/ml/mouse	99%	significant vasoconstriction inhibitory action	significantly improved the constriction of respiratory tract		
Cc1cncc2cccc(S(=O)(=O)N(CCCN)CCCc3ccccc3)c12.Cl [Example 5, N-[(4-Methyl-5-isoquinolyl)sulfonyl]-N-(3-phenylpropyl)-1,3-propylenediamine hydrochloride]	≤ 1000 nM	0.8 µM			98%	significant vasoconstriction inhibitory action			
Cl.NCCN(CCS(=O)(=O)c1ccccc1)S(=O)(=O)c1cccc2cnccc12 [Example 7, N-[(5-Isoquinolyl)sulfonyl]-N-[2-(phenylsulfonyl)ethyl]ethylenediamine hydrochloride]		30 µM	64.3%	400 x 10E5/ml/mouse	101%				
Cl.NCCCN(CCCc1ccccc1)S(=O)(=O)c1cccc2c(N)nccc12 [Example 8, N-[(1-Amino-5-isoquinolyl)sulfonyl]-N-(3-phenylpropyl)-1,3-propylenediamine hydrochloride]	≤ 1000 nM	0.3 µM			99%	significant vasoconstriction inhibitory action			
Cl.NCCCOc1cccc2c(N)nccc12 [Example 10, 3-[(1-Amino-5-isoquinolyl)oxy]propylamine hydrochloride]	1000 to 10000 nM	10 µM		150 x 10E5/ml/mouse	99%				
Cl.NCCN(CCS(=O)(=O)c1ccccc1)S(=O)(=O)c1cccc2c(O)nccc12 [Example 12, N-[(1-Hydroxy-5-isoquinolyl)sulfonyl]-N-[2-(phenylsulfonyl)ethyl]ethylenediamine hydrochloride]	1000 to 10000 nM	20 µM		100 x 10E5/ml/mouse		significant vasoconstriction inhibitory action	significantly improved the constriction of respiratory tract		
Cl.c1cc(NC2CCNCC2)c2ccncc2c1 [Example 20, 4-(5-Isoquinolyl)aminopiperidine hydrochloride]	1000 to 10000 nM	1.8 µM	82.8%		100%		significantly improved the constriction of respiratory tract		
Cc1cncc2cccc(NC3CCNCC3)c12.Cl [Example 106, 4-(4-Methyl-5-isoquinolyl)aminopiperidine hydrochloride]	10000 to 40000 nM	≤ 40 µM				significant vasoconstriction inhibitory action	significantly improved the constriction of respiratory tract	≤ 20 µM	decrease of infiltrated white blood cell number
